Reference: patent US20140296212A1, “SUBSTITUTED PHENOXYPROPYLCYCLOAMINE DERIVATIVES AS HISTAMINE-3 (H3) RECEPTOR LIGANDS” (CEPHALON, INC., priority 2009, published 2014)

Key:
human H3 receptor = target: T1, human H3 receptor (Homo sapiens, UniProt Q9Y5N1); assay: Human H3 radioligand binding ([3H]-N-alpha-methylhistamine, SPA); settings: membranes of CHO cells expressing human H3
T1 construct: expressed in transfected cells
Summary of the method: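 Membranes from H3-expressing cells (10 μg protein/well) in 50 mM Tris HCl pH 7.4, 5 mM MgCl2, 0.1% BSA with ~1 nM [3H]-N-alpha-methylhistamine and compound (0.01 nM–30 μM), SPA beads, 4 h, room temperature, dark. Non-specific binding defined with 10 μM clobenpropit; bound radioligand read by scintillation counting.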

[1] = target: T2, rat histamine H3 receptor (Rattus norvegicus, UniProt Q9QYN8); assay: Rat H3 radioligand binding ([3H]-N-alpha-methylhistamine, SPA); settings: membranes of CHO-A3 cells expressing rat H3; [3H]-N-alpha-methylhistamine; read-out: Rat H3 Ki
T2 construct: encoding the entire 445-amino-acid rat histamine H3 receptor; expressed in transfected cells
Summary of the method: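 Membranes from CHO-A3 cells stably expressing full-length rat H3 receptor (445 aa) incubated with ~1 nM [3H]-N-alpha-methylhistamine and compound (0.01 nM–30 μM) in 50 mM Tris HCl pH 7.4, 5 mM MgCl2, 0.1% BSA, 4 h, room temperature; SPA bead read-out. Non-specific binding defined with 10 μM clobenpropit.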

T1 sequence (Q9Y5N1 whole entry): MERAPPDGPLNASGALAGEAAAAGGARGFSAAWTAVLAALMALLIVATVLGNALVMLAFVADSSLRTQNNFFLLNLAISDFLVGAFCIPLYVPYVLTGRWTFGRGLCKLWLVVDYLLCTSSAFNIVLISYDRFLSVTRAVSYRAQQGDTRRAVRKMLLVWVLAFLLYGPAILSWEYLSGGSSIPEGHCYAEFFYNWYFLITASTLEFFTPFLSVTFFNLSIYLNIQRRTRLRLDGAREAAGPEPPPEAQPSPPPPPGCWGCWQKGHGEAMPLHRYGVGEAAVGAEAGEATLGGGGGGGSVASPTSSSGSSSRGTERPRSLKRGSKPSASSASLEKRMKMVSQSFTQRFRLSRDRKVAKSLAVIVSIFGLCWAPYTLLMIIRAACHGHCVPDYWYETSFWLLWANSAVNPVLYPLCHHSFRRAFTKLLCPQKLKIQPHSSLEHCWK
T2 sequence (Q9QYN8 whole entry): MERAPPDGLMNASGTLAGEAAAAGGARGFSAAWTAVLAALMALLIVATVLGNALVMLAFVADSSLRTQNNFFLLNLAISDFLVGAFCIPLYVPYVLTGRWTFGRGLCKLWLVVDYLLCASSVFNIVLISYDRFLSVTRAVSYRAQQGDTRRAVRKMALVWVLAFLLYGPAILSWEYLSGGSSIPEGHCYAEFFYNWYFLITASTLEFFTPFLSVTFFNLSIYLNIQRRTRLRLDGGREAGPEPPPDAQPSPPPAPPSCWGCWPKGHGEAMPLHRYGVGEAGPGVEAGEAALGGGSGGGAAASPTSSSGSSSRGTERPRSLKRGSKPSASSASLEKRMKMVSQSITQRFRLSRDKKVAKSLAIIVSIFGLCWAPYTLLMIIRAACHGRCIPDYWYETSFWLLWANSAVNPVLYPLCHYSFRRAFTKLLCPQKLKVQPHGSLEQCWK

Structure (SMILES)	Ki (human H3 receptor)	Ki [1]	melting point
C[C@@H]1CCCN1CCCOc1ccc(C(=O)CN2CCN(C(=O)OCc3ccccc3)CC2)cc1 [Example 138, 4-(2-{4-[3-((R)-2-Methyl-pyrrolidin-1-yl)-propoxy]-phenyl}-2-oxo-ethyl)-piperazine-1-carboxylic acid benzyl ester]	0.1 to 100 nM	0.1 to 100 nM	183 to 188 °C
C[C@@H]1CCCN1CCCOc1ccc(C(=O)CN2CCC(F)(F)C2)cc1F [Example 139, 2-(3,3-Difluoro-pyrrolidin-1-yl)-1-{3-fluoro-4-[3-((R)-2-methyl-pyrrolidin-1-yl)-propoxy]-phenyl}-ethanone]	0.1 to 100 nM	0.1 to 100 nM	206 °C
C[C@@H]1CCCN1CCCOc1ccc(C(=O)CN2CCC(F)(F)CC2)cc1F [Example 141, 2-(4,4-Difluoro-piperidin-1-yl)-1-{3-fluoro-4-[3-((R)-2-methyl-pyrrolidin-1-yl)-propoxy]-phenyl}-ethanone]	0.1 to 100 nM	101 to 500 nM	220 °C
C[C@@H]1CCCN1CCCOc1ccc(C(=O)CN2CCN(c3ccccc3)CC2)cc1F [Example 143, 1-{3-Fluoro-4-[3-((R)-2-methyl-pyrrolidin-1-yl)-propoxy]-phenyl}-2-(4-phenyl-piperazin-1-yl)-ethanone]	0.1 to 100 nM	0.1 to 100 nM	140 °C
CCC(=O)N1CCN(CC(=O)c2ccc(OCCCN3CCC[C@H]3C)cc2)CC1 [Example 144, 1-[4-(2-{4-[3-((R)-2-Methyl-pyrrolidin-1-yl)-propoxy]-phenyl}-2-oxo-ethyl)-piperazin-1-yl]-propan-1-one]	0.1 to 100 nM	0.1 to 100 nM	65 to 70 °C
C[C@@H]1CCCN1CCCOc1ccc(C(=O)CN2CCN(C(=O)c3ccc4ccccc4n3)CC2)cc1 [Example 145, 1-{4-[3-((R)-2-Methyl-pyrrolidin-1-yl)-propoxy]-phenyl}-2-[4-(quinoline-2-carbonyl)-piperazin-1-yl]-ethanone]	0.1 to 100 nM	0.1 to 100 nM	115.4 to 120 °C
C[C@@H]1CCCN1CCCOc1ccc(C(=O)CN2CCN(C(=O)C3CCCCC3)CC2)cc1F [Example 146, 2-(4-Cyclohexanecarbonyl-piperazin-1-yl)-1-{3-fluoro-4-[3-((R)-2-methyl-pyrrolidin-1-yl)-propoxy]-phenyl}-ethanone]	0.1 to 100 nM	0.1 to 100 nM	232 °C
O=C(CN1CCC(F)(F)CC1)c1ccc(OCCCN2CCCCC2)c(Cl)c1 [Example 147, 1-[3-Chloro-4-(3-piperidin-1-yl-propoxy)-phenyl]-2-(4,4-difluoro-piperidin-1-yl)-ethanone]	101 to 500 nM	> 1000 nM	122 to 135 °C
Cc1cc(C(=O)CN2CCN(C(=O)C3CCCCC3)CC2)ccc1OCCCN1CCC[C@H]1C [Example 148, 2-(4-Cyclohexanecarbonyl-piperazin-1-yl)-1-{3-methyl-4-[3-((R)-2-methyl-pyrrolidin-1-yl)-propoxy]-phenyl}-ethanone]	0.1 to 100 nM	0.1 to 100 nM	161 to 166.5 °C
C[C@@H]1CCCN1CCCOc1ccc(C(=O)CN2CCN(C(=O)Oc3ccc(F)cc3)CC2)cc1 [Example 149, 4-(2-{4-[3-((R)-2-Methyl-pyrrolidin-1-yl)-propoxy]-phenyl}-2-oxo-ethyl)-piperazine-1-carboxylic acid 4-fluoro-phenyl ester]	0.1 to 100 nM	0.1 to 100 nM	234 to 236 °C
Cc1cc(C(=O)CN2CCNC(=O)C2)ccc1OCCCN1CCC[C@H]1C [Example 150, 4-(2-{3-Methyl-4-[3-((R)-2-methyl-pyrrolidin-1-yl)-propoxy]-phenyl}-2-oxo-ethyl)-piperazin-2-one]	0.1 to 100 nM	101 to 500 nM	79 to 85 °C
C[C@@H]1CCCN1CCCOc1ccc(C(=O)CN2CCN(C(=O)c3ccccc3-c3ccccc3)CC2)cc1 [Example 152, 2-[4-(Biphenyl-2-carbonyl)-piperazin-1-yl]-1-{4-[3-((R)-2-methyl-pyrrolidin-1-yl)-propoxy]-phenyl}-ethanone]	0.1 to 100 nM	0.1 to 100 nM	117 to 119 °C
C[C@@H]1CCCN1CCCOc1cccc(C(=O)CN2CCN(C(=O)c3ccccc3)CC2)c1 [Example 153, 2-(4-Benzoyl-piperazin-1-yl)-1-{3-[3-((R)-2-methyl-pyrrolidin-1-yl)-propoxy]-phenyl}-ethanone]	101 to 500 nM	501 to 1000 nM	125 to 135 °C
C[C@@H]1CCCN1CCCOc1cccc(C(=O)CN2CCC(F)(F)CC2)c1 [Example 154, 2-(4,4-Difluoro-piperidin-1-yl)-1-{3-[3-((R)-2-methyl-pyrrolidin-1-yl)-propoxy]-phenyl}-ethanone]	0.1 to 100 nM	101 to 500 nM	110 to 120 °C
C[C@@H]1CCCN1CCCOc1ccc(C(=O)CN2CCN(C)C(=O)C2)cc1 [Example 155, 1-Methyl-4-(2-{4-[3-((R)-2-methyl-pyrrolidin-1-yl)-propoxy]-phenyl}-2-oxo-ethyl)-piperazin-2-one]	0.1 to 100 nM	0.1 to 100 nM	115 to 120 °C
CC(=O)N1CCN(CC(=O)c2ccc(OCCCN3CCC[C@H]3C)c(C)c2)CC1 [Example 156, 2-(4-Acetyl-piperazin-1-yl)-1-{3-methyl-4-[3-((R)-2-methyl-pyrrolidin-1-yl)-propoxy]-phenyl}-ethanone]	0.1 to 100 nM	0.1 to 100 nM	120 to 126 °C
C[C@@H]1CCCN1CCCOc1ccc(C(=O)CN2CCN(C(=O)c3cccc(Cl)c3Cl)CC2)cc1 [Example 157, 2-[4-(2,3-Dichloro-benzoyl)-piperazin-1-yl]-1-{4-[3-((R)-2-methyl-pyrrolidin-1-yl)-propoxy]-phenyl}-ethanone]	0.1 to 100 nM	0.1 to 100 nM	137 to 150 °C
